According to PubChem BioAssay (NCI):
Values joined by “and” are separate entries in the source; they are usually repeats but may differ in a detail not shown here. Identical values can stand only once.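 Where inhibition never reached the appropriate level, the endpoint shown equals the highest concentration tested. Otherwise, values were interpolated linearly from a five-concentration, 48-hour dose response in 96-well plates. GI50 is the concentration that inhibits growth by half. TGI denotes the concentration required for complete inhibition of growth.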

How the values were obtained:
Assay in all cases: NCI tumour cell line growth inhibition, 48 h
DMS 273 small cell lung = test system: DMS 273 small cell lung
KM12 colon = test system: KM12 colon
OVCAR-8 ovarian = test system: OVCAR-8 ovarian
SNB-78 CNS = test system: SNB-78 CNS
CCRF-CEM leukemia = test system: CCRF-CEM leukemia
CAKI-1 renal = test system: CAKI-1 renal
XF 498 CNS = test system: XF 498 CNS
OVCAR-4 ovarian = test system: OVCAR-4 ovarian
HOP-62 NSCLC = test system: HOP-62 NSCLC
HS 578T breast = test system: HS 578T breast

Structure (SMILES)	TGI (DMS 273 small cell lung) [µM]	TGI (KM12 colon) [µM]	TGI (OVCAR-8 ovarian) [µM]	TGI (SNB-78 CNS) [µM]	TGI (CCRF-CEM leukemia)	TGI (CAKI-1 renal) [µM]	TGI (XF 498 CNS) [µM]	TGI (OVCAR-4 ovarian) [µM]	TGI (HOP-62 NSCLC) [µM]	GI50 (XF 498 CNS) [µM]	GI50 (OVCAR-4 ovarian)	GI50 (DMS 273 small cell lung) [µM]	GI50 (KM12 colon) [µM]	GI50 (OVCAR-8 ovarian)	GI50 (HOP-62 NSCLC)	GI50 (CCRF-CEM leukemia)	GI50 (CAKI-1 renal)	GI50 (HS 578T breast)	TGI (HS 578T breast) [µM]
c1ccc(NC[Si]23OCCN(CCO2)CCO3)cc1	> 100	> 100	> 100	> 100	> 100 µM	> 100	–	–	–	–	–	–	–	–	–	–	–	–	–
C/C(=N/O)c1ccc2c(c1)C(=NO)c1cc(/C(C)=N/O)ccc1-2	> 100	32.9	32.3	47.9	–	> 100	36.2	30.5	28.3	–	–	–	–	–	–	–	–	–	–
C=CC1=CC(C)C[C@]1(O)C(=O)OC (stereo not given in full)	–	–	–	> 100	–	–	–	–	–	> 100	> 100 µM	> 100	> 100	> 100 µM	> 100 µM	> 100 µM	> 100 µM	–	–
CC(=O)OCCC(O[Si](c1ccccc1)(c1ccccc1)C(C)(C)C)C(C)(C)O (stereo not given)	> 100	55	> 100	> 100	67.6 µM	–	96.8	> 100	–	–	–	–	–	–	–	–	–	–	–
COc1ccc(/C=C(/C(=O)n2cnnn2)c2cc(OC)c(OC)c(OC)c2)cc1	–	> 100	> 100	–	> 100 µM	> 100	–	> 100	> 100	–	40.5 µM	–	1.96	3.66 µM	4.82 µM	3.44 µM	4.15 µM	4.07 µM	> 100
CC[C@H](C)[C@H](NC(=O)[C@H]1CCCCN1C)C(=O)N(C)[C@H](C[C@@H](OC(C)=O)c1nc(C(=O)N[C@@H](Cc2ccccc2)C[C@H](C)C(=O)OC)cs1)C(C)C	–	> 25	> 25	–	2.5 µM	–	–	> 25	> 25	–	0.00479 µM and 0.0025 µM	–	–	0.000473 µM and 0.0025 µM	0.00052 µM and 0.0025 µM	0.000552 µM and 0.0025 µM	0.000792 µM	0.000504 µM and 0.0025 µM	6.9
C[C@@]12CCCC(=O)N1[C@@H](CO)C(c1ccccc1)O2 (stereo not given in full)	> 100	> 100	> 100	> 100	–	> 100	> 100	> 100	> 100	–	–	–	–	–	–	–	–	–	–
CN(C)C/C=C/C(=O)Nc1ccc(C(=O)N2CCC[C@@H](Nc3ncc(Cl)c(-c4c[nH]c5ccccc45)n3)C2)cc1	–	12.1	11.8	–	15.8 µM	12.1	–	9.74	5.74	–	0.0664 µM	–	0.371	0.406 µM	0.432 µM	0.0438 µM	1.65 µM	0.214 µM	1.45
COc1ccc(C(=O)C[C@]2(O)C(=O)Nc3c(Cl)ccc(Cl)c32)cc1	–	> 40.1	> 77.3	–	> 100 µM	> 100	–	> 100	> 100	–	12 µM	–	0.39	0.92 µM	1.06 µM	0.563 µM	0.492 µM	0.555 µM	> 100
CN(C)C(=O)SC1=C(c2c(Cl)cccc2Cl)C(=O)c2ccccc21	–	28.6	17.1	–	9.27 µM	5.72	–	10.8	36.7	–	4.24 µM	–	14.8	6.38 µM	18.7 µM	2.67 µM	2.15 µM	20 µM	> 75.5
CC1(C)OC(COCCOCCCCCO)C(COCCOCCCCCO)O1 (stereo not given)	> 100	> 100	> 100	> 100	–	> 100	–	> 100	> 100	–	–	–	–	–	–	–	–	–	–
Cc1ccccc1NC(=O)C(=O)CC(=O)c1ccc([N+](=O)[O-])cc1	> 100	> 100	> 100	> 100	–	> 100	> 100	> 100	> 100	–	–	–	–	–	–	–	–	–	–
CN(C)CCCC1(c2ccc(F)cc2)OCc2cc(-c3cncc4ccccc34)ccc21 (stereo not given)	–	12.1	19.8	–	11.6 µM	5.88	–	13.7	16.8	–	3.27 µM	–	3.41	4.48 µM	3.8 µM	3.45 µM	2 µM	2.78 µM	11.6
COC(=O)c1cc2c3c(ccc2[nH]1)N(C(=O)c1cc2c4c(ccc2[nH]1)N(C(=O)c1cc2c5c(ccc2[nH]1)N(C(N)=O)CC5)CC4)CC3	> 100	> 100	> 30.8	> 100	> 51.2 µM	8.95	–	> 100	7.83	–	–	–	–	–	–	–	–	–	–
O=C(Nc1ccccc1O)c1ccc(CNC(=O)c2ccsc2Nc2ccnc(C(F)(F)F)c2)cc1	–	11.9	19.1	–	> 100 µM	9.96	–	> 100	> 100	–	1.74 µM	–	2.84	1.57 µM	7.84 µM	0.32 µM	2.62 µM	2.71 µM	16.2
O=C(CCN1CCCC1)Nc1ccc2c(Nc3ccccc3)c3ccccc3nc2c1	–	2.7	5.51	–	2.14 µM	2.08	–	2.13	2.51	–	0.468 µM	–	0.546	0.851 µM	0.404 µM	0.142 µM	0.397 µM	1.09 µM	3.28
CC(C)(C)c1cc(CCC(=O)Nc2ccc(Cl)cc2Cl)nc(N)n1	–	> 100	> 100	> 100	> 100 µM	> 100	–	> 100	> 100	–	–	–	–	–	–	–	–	–	–
CCOC(=O)C[C@@]12CCCNC1(C)CCc1ccccc12 (stereo not given in full)	> 100	> 100	> 100	–	> 100 µM	–	> 100	–	> 100	–	–	–	–	–	–	–	–	–	–
Cc1cc(NC(=O)NC(=O)c2ccccc2N(C)C)ccc1Oc1ncc(Br)cn1	–	> 38	> 68.1	> 100	3.5 µM and 11.8 µM	> 100	–	> 68.1	57.9	0.894	3.45 µM	–	–	0.614 µM	–	–	0.588 µM and 0.402 µM	–	> 100
C[C@@H]1C/C=C\C(=O)O[C@H](/C=C/C#C/C=C/C(C)(C)[C@@H](O)c2cccc(O)c2Br)[C@@H](C)/C=C/[C@H](C)C[C@H](OC(N)=O)C1	–	16.2	23.2	–	33 µM	13.8	–	22	21.4	–	6.45 µM	–	0.0252	0.0512 µM	0.633 µM	0.0419 µM	0.0462 µM	0.4 µM	32.3
